From patent US12435039B2, “Activators of caspase-8/c-FLIPL dimerization and their use in cancer therapy” (priority 2018, dated 2025)

Assays:
Jurkat cells = experiment: Cell viability quantification by ATP assay (CellTiter-Glo), Jurkat cells; type: cell-based, human
From the text: (§1) Cell lines—Human cervical cancer HeLa-CD95 cells (Neumann et al., 2010) (CD95-overexpressing cells) and HeLa-CD95-FL cells (CD95/c-FLIPL-overexpressing cells) were maintained in DMEM/Ham's (Merck Millipore, Germany) supplemented with 10% heat-inactivated fetal calf serum, 1% Penicillin-Streptomycin and 0.0001% Puromycin in 5% CO2. Human acute myeloid leukemia MV-4-11 cells and T lymphoma Jurkat cells were maintained in RPMI 1640 (Thermo Fisher Scientific Inc., USA) supplemented with 10% heat-inactivated fetal calf serum and 1% Penicillin-Streptomycin in 5% CO2.
(§2) Cell viability quantification by ATP assay—50 μL of the CellTiter-Glo® solution was added to each well and measurements were performed according to manufacturer's instructions (CellTiter-Glo® Luminescent Cell Viability Assay, Promega, Germany). The luminescence intensity was analyzed by a microplate reader Infinite M200pro (Tecan, Switzerland). The viability of untreated cells was taken as one relative unit (RU). Every condition was performed in duplicate.

HeLa-CD95 cells [1] = experiment: Cell viability quantification by ATP assay (CellTiter-Glo), HeLa-CD95 cells; type: cell-based, human
From the text: as §1, §2

[2] = tested on: HeLa-CD95-FL cells (CD95/c-FLIPL-overexpressing); experiment: Cell viability quantification by ATP assay (CellTiter-Glo), HeLa-CD95-FL cells; type: cell-based, human
From the text: as §1, §2

MV-4-11 cells = experiment: Cell viability quantification by ATP assay (CellTiter-Glo), MV-4-11 cells; type: cell-based, human; conditions: FLIPinBγ two hours, then CD95L 1000 ng/mL for 6 hours
From the text: as §1, §2

HeLa-CD95 cells [3] = experiment: Cell death detection using IncuCyte live cell imaging (Cytotox Red); type: cell-based; conditions: 40 μM FLIPinBγ two hours
Method: Cell death detection using IncuCyte™ live cell imaging—HeLa-CD95 cells in a 96 well plate (5×10^3 cells/well) were pre-incubated with FLIPinBγ for 2 hours. […] To monitor cell death, cells were treated with IncuCyte™ Cytotox Red Reagent (1:4000) and Caspase-3/7 Green Apoptosis Assay Reagent (1:5000). The cells were imaged every hour by IncuCyte® ZOOM (Essen BioScience, Michigan) with a […] objective for a period of 6 hours. Every condition was performed in triplicate. Data were analyzed by the IncuCyte® ZOOM Software (2016A).

[4] = tested on: caspase-3/7 in Jurkat cells; experiment: Caspase-3/7 activity assay (Caspase-Glo 3/7), Jurkat cells; type: cell-based, human
Method: Caspase-3/7 activity assay—Caspase activity was measured by adding 50 μL of the Caspase-Glo®3/7 solution to each well. The luminescence intensity was analyzed by a microplate reader Infinite M200pro (Tecan, Switzerland) according to manufacturer's instructions (Caspase-Glo® 3/7 Assay, Promega, Germany). The caspase activity of non-treated cells was taken as one relative unit (RU). Every condition was performed in duplicate.

[5] = tested on: caspase-3/7 in HeLa-CD95 cells; experiment: Caspase-3/7 activity by IncuCyte live cell imaging (Caspase-3/7 Green); type: cell-based, human
[6] = tested on: procaspase-8, RIPK1 and PARP cleavage in HeLa-CD95 cells; experiment: Western Blot analysis of total cellular lysates, CD95L-induced cleavage; type: cell-based, human; conditions: 20 μM FLIPinBγ two hours, CD95L 60 ng/mL three hours
Method: (§3) Analysis of total cell lysates by Western Blot analysis—The Western Blot analysis of total cellular lysates was performed in accordance to the inventors' previous reports (Schmidt et al., 2015).

c-FLIPL = experiment: Western Blot time-dependent analysis of c-FLIPL levels; type: cell-based, human; conditions: HeLa-CD95 cells; 20 μM FLIPinBγ up to 16 hours; first hours after administration
Method: as §3

caspase-8 at the DISC = experiment: Caspase-8 activity assay on CD95 DISC-IPs (Caspase-Glo 8); type: biochemical, human; conditions: CD95 DISC-IPs from HeLa-CD95 cells; 20 μM FLIPinBγ two hours, CD95L 60 ng/mL three hours
Method: CD95 DISC-IP—The CD95 DISC-IP (Immunoprecipitation) from 5×10^6 HeLa-CD95 cells were done as described before (Pietkiewicz et al., 2015). In addition, DISC-IPs were washed four times with PBS, which was followed by Western Blot analysis or caspase-8 activity assays.
Caspase-8 activity assay—Each of protein A beads samples with CD95 DISC-IPs were resuspended in 95 μL of CHAPS-Buffer (50 mM HEPES pH=7.2; 50 mM NaCl; 10 mM EDTA; 5% Glycerin; 10 mM DTT, 0.1% CHAPS) and transferred into a 96-well plate. Caspase-8 activity was measured according to manufacturer's instructions (Caspase-Glo® 8 Assay, Promega, Germany). Every condition was performed in duplicate. The luminescence intensity was analyzed by a microplate reader Infinite M200pro (Tecan, Switzerland).

[7] = tested on: caspase activity in HeLa-CD95 cells; experiment: Caspase activity in HeLa-CD95 cells (FLIPinB); type: cell-based, human; conditions: FLIPinB with CD95L/TRAIL

## O=C(NCCOC(=O)c1cccc(S(=O)(=O)NCc2cccnc2)c1)c1ccc(-c2ccncc2)cc1 [FLIPinBγ, 2-[[4-(4-pyridyl)benzoyl]amino]ethyl 3-(3-pyridylmethylsulfamoyl)benzoate]
Jurkat cells; FLIPinBγ two hours, then CD95L 60 ng/mL for 6 hours
  CD95L-induced loss of cell viability: efficiently promoted a loss of cell viability in a dose- and time-dependent manner
HeLa-CD95 cells [1]; FLIPinBγ two hours, then CD95L 60 ng/mL for 22 hours
  CD95L-induced loss of cell viability: efficiently promoted a loss of cell viability in a dose- and time-dependent manner
[2]; HeLa-CD95-FL cells overexpressing c-FLIPL
  relative efficiency across cell lines: most efficient
[2]; HeLa-CD95-FL cells, FLIPinBγ two hours, then CD95L 238 ng/mL for 6 hours
  CD95L-induced loss of cell viability: efficiently promoted a loss of cell viability in a dose- and time-dependent manner
MV-4-11 cells
  CD95L-induced loss of cell viability: efficiently promoted a loss of cell viability in a dose- and time-dependent manner
HeLa-CD95 cells [3]; CD95L 50 ng/mL, in the first hours
  CD95L-induced cell death (Cytotox Red live cell imaging): enhanced
HeLa-CD95 cells [3]; TRAIL 100 ng/mL, most prominent in the first hours
  TRAIL-induced cell death (Cytotox Red live cell imaging): enhanced
[4]; 20 μM FLIPinBγ two hours, CD95L 60 ng/mL four hours
  caspase-3/7 activity, FLIPinBγ/CD95L co-treatment: increase
[4]; 20 μM FLIPinBγ two hours, TRAIL 100 ng/mL three hours
  caspase-3/7 activity, FLIPinBγ/TRAIL co-treatment: increase
[5]
  caspase-3/7 activity in single cells, FLIPinBγ/TRAIL co-administration: increase
[5]; 40 μM FLIPinBγ two hours, CD95L 50 ng/mL
  caspase-3/7 activity in single cells, FLIPinBγ/CD95L co-administration: increase
[6]
  CD95L-induced RIPK1 cleavage: slight increase
  CD95L-induced cleavage of PARP: increases
  CD95L-induced cleavage of procaspase-8 to p18: increases
c-FLIPL
  influence on c-FLIPL expression: no influence
caspase-8 at the DISC
  caspase-8 activity at the DISC: increased

## O=C(NCCOC(=O)c1cccc(S(=O)(=O)NCc2ccccc2)c1)c1ccc(-c2ccccc2)cc1 [FLIPinB, 2-[(4-phenylbenozyl)amino]ethyl 3-(benzylsulfamoyl)benzoate]
Jurkat cells
  initial experimental screening of FLIPins: viability upon FLIPin/CD95L vs CD95L-only: showed the best properties in the initial selection
Jurkat cells; FLIPinB plus CD95L vs CD95L only
  CD95L-induced loss of cell viability: enhanced
Jurkat cells; FLIPinB plus TRAIL
  TRAIL-induced loss of cell viability: enhanced
HeLa-CD95 cells [1]; FLIPinB plus CD95L
  CD95L-induced loss of cell viability: enhanced
HeLa-CD95 cells [1]; FLIPinB plus TRAIL
  TRAIL-induced loss of cell viability: enhanced
[2]; HeLa-CD95-FL cells, FLIPinB plus CD95L
  resistance of HeLa-CD95-FL cells to CD95L: allowed to overcome the resistance
[4]; FLIPinB with CD95L/TRAIL
  caspase activity: increased
[7]
  caspase activity: increased
